“Also recorded” adds a separate entry of the source. Where two headings read alike, the source gives them in different places. One block for each compound: values may come before it.
Key:
Format in all cases: physicochemical
[1] = Solid form stability under stressed conditions (wet, dry, high humidity) by XRPD; conditions: for Dry_XRPD pattern: dry (45° C. under vacuum); for Humid_XRPD pattern: high humidity (RH >95%); for Wet_XRPD pattern: wet
Method: The solid form stability of each salt was studied by XRPD under stressed conditions: wet, dry (45° C. under vacuum) and high humidity (RH >95%).

[2] = Solid form stability of salts in different solvents (slurry, XRPD); conditions: 48 hours, room temperature
Method: Three salts were studied for solid form stability in water (disproportionation test), methanol, acetonitrile, and acetone:water (9:1) for 48 hours at room temperature.

[3] = Solid form stability at 40° C. and 75% humidity; conditions: 40° C. and 75% RH for seven days
Method: Solid form stability studies of β-GPA fumarate, succinate, and oxalate were carried out at 40° C. and 75% RH for seven days. Around 30 mg of the salts were placed in 4 mL vials which were placed in a saturated solution of sodium chloride (2 mL) with lids closed at 40° C. […]

[4] = Dynamic vapor sorption (DVS) with XRPD of the post-DVS sample; conditions: for solid form by XRPD after the DVS experiment: post DVS sample
Method: Samples were analyzed using an Aquadyne DVS-2 gravimetric water sorption analyzer. The relative humidity was adjusted between 2-95% and the weight of the sample was continuously monitored and recorded.
[…]: β-GPA maleate (1:1) Form II, β-GPA fumarate (1:1), β-GPA maleate (2:1), β-GPA succinate (2:1) and β-GPA oxalate (1:1) were analyzed by DVS experiment followed by XRPD analysis of the sample at the end of the experiment.
Sample 2162-64-1 was analyzed by DVS in triplicate and the post DVS samples were characterized by XRPD to identify the form at the end of the experiment.

[5] = Flowability measurement using Hanson Flodex unit; conditions: for flow character from the experimental data: summary of density and Flodex measurements
Text: Method: A cylindrical vessel is secured to the stand and above that a funnel is also secured such that the bottom of the funnel is close to the vessel. A powder load of ≈50-60 g is then poured through the funnel into the middle of the cylinder. The lever device is pulled to open the hole in the disk quickly and without vibration. If a powder slowly flows through the small-diameter holes, leaving a cavity shaped like an upside-down, truncated cone, the test is considered positive. If a powder flocculates in bulk and falls abruptly, forming a cylindrical cavity, the test is considered negative. […] If the experiment is negative, the powder is tested again with a disk having a larger hole.

Bulk and tapped density = test: Bulk and tapped density
Method: The bulk density of β-GPA oxalate (Pattern 18 B), succinate (Pattern 15A), and fumarate (Pattern 7A) were determined by pouring in a known amount of salt (g) into a measuring cylinder. The volume (Vi) occupied by the salt was recorded and the bulk density (ρB) was determined using equation 1. ρB=g/Vi (1)
The tapped densities of the salts were determined using a Tap density analyzer. A known amount of salt was poured (g) into a measuring cylinder and the initial volume was recorded and tapped using a Tap density analyzer. The final volume (Vf) after tapping was recorded and the tapped density (ρT) was calculated by using equation 2. ρT=g/Vf (2)

[6] = Carr's index and Hausner ratio (predicted flowability); conditions: Table 18, scale of Table 17
[7] = as above
Text: The flow properties of β-GPA are sub-optimal. The bulk density is 0.389 g/cc and the tapped density is 0.627 g/cc. These measurements can be used to calculate the Carr's index and Hausner ratio for a substance. The Carr's index and Hausner ratio are indicators of flowability of a powder. As known in the art, e.g., as described in Carr R. L. Chem. Eng. 1965, 72, 163-168, the relationship to flowability of a powder to the Carr's index and Hausner ratio is based on the scale shown in Table 6 below.
Carr's index or Carr's compressibility index (C) is an indication of the compressibility of a powder. It can be calculated using the equation below: Carr's index (C)=100(Vi−Vf)/Vi (3) A Carr's index greater than 25 is considered to be an indication of poor flowability while a value below 15 is an indication of good flowability.
The Hausner ratio is a number that is correlated to the flowability of a powder or granular material. It is calculated by using the equation below: Hausner ratio=Vi/Vf (4)

[8] = water (disproportionation test)
[9] = calculated from bulk and tapped volumes

SMILES: CCS(=O)(=O)O.N=C(N)NCCC(=O)O [ethanesulfonic acid salt]
stability in dry conditions [1]: stable
stability under high humidity conditions [1]: deliquesced

SMILES: N=C(N)NCCC(=O)O.O=C(O)/C=C/C(=O)O [β-GPA fumarate (1:1)]
XRPD pattern after slurry ([2]; acetone:water (9:1)): retain their XRPD pattern
XRPD pattern after slurry ([2]; acetonitrile): retain their XRPD pattern
XRPD pattern after slurry ([2]; methanol): retain their XRPD pattern
XRPD pattern after slurry ([2]; water (disproportionation test), listed as 1:1 β-GPA fumarate): retained their XRPD pattern
Dry_XRPD pattern [1]: Pattern 7A
stability in dry conditions [1]: stable
Humid_XRPD pattern [1]: Pattern 7A
stability under high humidity conditions [1]: stable
Wet_XRPD pattern [1]: Pattern 7A
solid form stability (XRPD) ([3]; listed as 1:1 fumarate salt): stable
moisture uptake during the DVS experiment ([4]; listed as 1:1 β-GPA fumarate): < 1%
solid form by XRPD after the DVS experiment ([4]; listed as 1:1 fumarate salt): no form change
solid form by XRPD after the DVS experiment ([4]; listed as 1:1 β-GPA fumarate): presence of β-GPA peaks along with Pattern 7A

SMILES: N=C(N)NCCC(=O)O.O=C(O)/C=C/C(=O)O [β-GPA fumarate]
XRPD pattern after slurry [2, 8]: retained their XRPD patterns
flow character from the experimental data [5]: excellent
solid form stability (XRPD) [3]: retained their original XRPD pattern; also recorded: stable
solid form by XRPD after the DVS experiment [4]: retained their XRPD; also recorded: presence of two peaks from the β-GPA

SMILES: Cl.NC(N)=NCCC(=O)O [β-GPA hydrochloride]
Dry_XRPD pattern [1]: Pattern 1A
stability in dry conditions [1]: stable
Humid_XRPD pattern [1]: Deliquesce
stability under high humidity conditions [1]: deliquesced
Wet_XRPD pattern [1]: Pattern 1A

SMILES: N=C(N)NCCC(=O)O.O=C(O)C[C@H](O)C(=O)O [β-GPA malate (1:1)]
Dry_XRPD pattern [1]: Pattern 12A
stability in dry conditions [1]: stable
Humid_XRPD pattern [1]: Deliquesce
stability under high humidity conditions [1]: deliquesced
Wet_XRPD pattern [1]: Pattern 12A

SMILES: N=C(N)NCCC(=O)O.O=C(O)/C=C\C(=O)O [β-GPA maleate (1:1) Form II]
XRPD pattern after slurry ([2]; acetone:water (9:1)): matched with the original pattern of the salt (Pattern 6D) along with some additional peaks
XRPD pattern after slurry ([2]; acetonitrile): retain its XRPD pattern
XRPD pattern after slurry ([2]; methanol): retain its XRPD pattern
XRPD pattern after slurry [2, 8]: retained their XRPD patterns
Dry_XRPD pattern [1]: Pattern 6D
Humid_XRPD pattern [1]: Pattern 6D
Wet_XRPD pattern [1]: Pattern 6D
moisture uptake during the DVS experiment [4]: ~25%
moisture uptake ([4]; at around 95% RH): around 25%
solid form by XRPD after the DVS experiment [4]: no form change

Second part, led by results:

Dry_XRPD pattern [1]: Pattern 6A
stability in dry conditions [1]: stable
Humid_XRPD pattern [1]: Pattern 6A
stability under high humidity conditions [1]: stable
Wet_XRPD pattern [1]: Pattern 6A
SMILES: N=C(N)NCCC(=O)O.O=C(O)/C=C\C(=O)O [β-GPA maleate (1:1) Form I]

Dry_XRPD pattern [1]: Pattern 6C
Humid_XRPD pattern [1]: Pattern 6B
Wet_XRPD pattern [1]: Pattern 6B
SMILES: N=C(N)NCCC(=O)O.N=C(N)NCCC(=O)O.O=C(O)/C=C\C(=O)O [β-GPA maleate (2:1)]

Dry_XRPD pattern [1]: Pattern 19A
stability in dry conditions [1]: stable
Humid_XRPD pattern [1]: Deliquesce
stability under high humidity conditions [1]: deliquesced
Wet_XRPD pattern [1]: Pattern 19A
SMILES: CS(=O)(=O)O.N=C(N)NCCC(=O)O [β-GPA methanesulfonate]

XRPD pattern after slurry ([2]; acetone:water (9:1)): retain their XRPD pattern
XRPD pattern after slurry ([2]; acetonitrile): retain their XRPD pattern
XRPD pattern after slurry ([2]; methanol): retain their XRPD pattern
XRPD pattern after slurry [2, 8]: retained their XRPD patterns
XRPD pattern after slurry ([2]; water (disproportionation test), listed as 1:1 β-GPA oxalate): retained their XRPD pattern
Did solid pass? ([5]; Disc pore size 12 mm): No
Did solid pass? ([5]; Disc pore size 18 mm): No
Did solid pass? ([5]; Disc pore size 24 mm): No
Did solid pass? ([5]; Disc pore size 26 mm): Yes
Did solid pass? ([5]; Disc pore size 28 mm): Yes
Did solid pass? ([5]; Disc pore size 30 mm): Yes
flow character from the experimental data [5]: fair
Bulk density (Bulk and tapped density): 0.505 g/cc
Tapped density (Bulk and tapped density): 0.623 g/cc
Flow character [6]: Fair (16-20)
Dry_XRPD pattern [1]: Pattern 18A
stability in dry conditions [1]: stable
Humid_XRPD pattern [1]: Pattern 18A
stability under high humidity conditions [1]: stable
Wet_XRPD pattern [1]: Pattern 18A
Carr's index [7, 9]: 18.7
Hausner ratio [7, 9]: 1.23
Flow character ([7]; predicted, scale of Table 6 (Carr's index)): Fair (16-20)
solid form stability (XRPD) ([3]; listed as 1:1 oxalate salt): stable
solid form by XRPD after the DVS experiment [4]: retained their XRPD
solid form by XRPD after the DVS experiment ([4]; listed as 1:1 oxalate salt): no form change
solid form by XRPD after the DVS experiment ([4]; listed as 1:1 β-GPA oxalate): no form change
SMILES: N=C(N)NCCC(=O)O.O=C(O)C(=O)O [β-GPA oxalate (1:1)]
solid form stability (XRPD) [3]: retained their original XRPD pattern; also recorded: stable

Dry_XRPD pattern [1]: Pattern 4A
stability in dry conditions [1]: stable
Humid_XRPD pattern [1]: Deliquesce
stability under high humidity conditions [1]: deliquesced
Wet_XRPD pattern [1]: Pattern 4A
SMILES: N=C(N)NCCC(=O)O.O=P(O)(O)O [β-GPA phosphate]

From patent publication US9884813B1, “Pharmaceutically acceptable salts of B-guanidinopropionic acid with improved properties and uses thereof” (Rgenix, Inc., priority 2017, dated 2018)
